According to article PMC3512521, “Synthetic metabolic engineering-a novel, simple technology for designing a chimeric metabolic pathway” (Microbial Cell Factories, 2012):

Columns and labels:
Format in all cases: biochemical
[1] = molecular target: T1, PFK (6-phosphofructokinase) (Thermus thermophilus, UniProt P21777); test: coupled assay, NAD+ reduction at […] nm; conditions: 0.1 mM substrate, 0.2 mM ATP, 5 mM MgCl2, 0.5 mM MnCl2, pH 7.0, 50 °C
T1 construct: gene pfkA; heat-treated lysate of recombinant E. coli; native form, untagged; Riken HB8 expression plasmid

[2] = molecular target: T2, FBA (fructose-bisphosphate aldolase) (Thermus thermophilus, UniProt Q5SHF7); test: coupled assay, NAD+ reduction at […] nm; conditions: 0.1 mM substrate, 5 mM MgCl2, 0.5 mM MnCl2, pH 7.0, 50 °C
T2 construct: gene TTHA1773; heat-treated lysate of recombinant E. coli; native form, untagged; Riken HB8 expression plasmid
T2 sequence (Q5SHF7 1-305): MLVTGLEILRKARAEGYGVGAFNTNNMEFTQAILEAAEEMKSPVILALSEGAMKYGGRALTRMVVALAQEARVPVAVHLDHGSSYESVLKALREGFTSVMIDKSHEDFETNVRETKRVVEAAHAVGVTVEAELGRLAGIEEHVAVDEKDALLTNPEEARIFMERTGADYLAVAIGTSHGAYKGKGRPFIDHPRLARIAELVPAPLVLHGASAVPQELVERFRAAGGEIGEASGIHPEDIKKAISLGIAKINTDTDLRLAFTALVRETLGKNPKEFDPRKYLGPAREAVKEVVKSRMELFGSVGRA

[3] = molecular target: T3, malate/lactate dehydrogenase (MLDH) (Thermus thermophilus, UniProt Q53W84); test: NADH oxidation at […] nm; conditions: 0.2 mM pyruvate, 0.2 mM NADH, 5 mM MgCl2, 0.5 mM MnCl2, pH 7.0, 50 °C
T3 construct: gene TTHB078; heat-treated lysate of recombinant E. coli; native form, untagged; Riken HB8 expression plasmid

[4] = molecular target: T4, Thermus lactate dehydrogenase (LDH) (Thermus thermophilus, UniProt Q5SJA1); test: spectrophotometric NADH oxidation at […] nm; conditions: 0.2 mM pyruvate, 0.2 mM NADH, pH 7.0, 50 °C; inhibitor
T4 construct: heat-treated (70 °C, 30 min) lysate of recombinant E. coli; native form, untagged
T4 sequence (Q5SJA1 whole entry): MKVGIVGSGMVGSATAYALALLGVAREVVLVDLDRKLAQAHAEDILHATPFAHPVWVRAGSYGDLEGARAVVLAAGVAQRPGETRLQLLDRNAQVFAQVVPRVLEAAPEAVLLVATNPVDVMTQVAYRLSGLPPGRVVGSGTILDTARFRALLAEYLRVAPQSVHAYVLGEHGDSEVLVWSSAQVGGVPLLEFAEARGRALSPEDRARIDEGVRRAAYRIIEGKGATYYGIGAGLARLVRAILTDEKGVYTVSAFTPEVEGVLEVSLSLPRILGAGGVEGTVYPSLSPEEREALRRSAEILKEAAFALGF

T1 sequence (P21777 whole entry): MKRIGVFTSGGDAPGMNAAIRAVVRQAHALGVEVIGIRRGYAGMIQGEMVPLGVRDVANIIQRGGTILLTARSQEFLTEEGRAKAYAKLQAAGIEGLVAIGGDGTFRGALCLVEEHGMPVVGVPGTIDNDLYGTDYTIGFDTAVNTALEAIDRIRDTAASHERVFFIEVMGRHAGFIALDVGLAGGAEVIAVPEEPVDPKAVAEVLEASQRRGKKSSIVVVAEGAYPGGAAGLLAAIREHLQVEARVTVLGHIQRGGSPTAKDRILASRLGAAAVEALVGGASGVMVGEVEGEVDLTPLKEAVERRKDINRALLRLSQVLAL
T3 sequence (Q53W84 entry or part of it): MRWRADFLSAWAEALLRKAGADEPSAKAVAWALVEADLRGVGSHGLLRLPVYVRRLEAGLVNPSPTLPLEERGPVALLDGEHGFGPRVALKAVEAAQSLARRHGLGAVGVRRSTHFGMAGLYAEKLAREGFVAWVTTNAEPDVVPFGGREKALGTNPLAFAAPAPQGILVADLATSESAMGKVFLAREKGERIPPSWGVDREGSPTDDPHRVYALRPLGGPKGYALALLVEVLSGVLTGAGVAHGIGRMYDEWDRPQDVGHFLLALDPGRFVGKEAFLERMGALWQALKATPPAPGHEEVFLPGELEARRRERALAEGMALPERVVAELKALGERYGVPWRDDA

For Nc1ncnc2c1ncn2[C@@H]1O[C@H](COP(=O)(O)OP(=O)(O)OP(=O)(O)O)[C@@H](O)[C@H]1O [ATP], the “coupled assay, NAD+ reduction at 340 nm” value [1] was “phosphorylation of F6P catalyzed by PFK”.
For O=P(O)(O)OC[C@H]1OC(O)(COP(=O)(O)O)[C@@H](O)[C@@H]1O (stereo partly shown) [fructose-1,6-bisphosphate], the “coupled assay, NAD+ reduction at 340 nm” value [2] was “fructose-6-phosphate, fructose-1,6-bisphosphate, dihydroxyacetone phosphate”.
For CC(=O)C(=O)O [pyruvate], the “NADH oxidation at 340 nm” value [3] was “The enzyme was confirmed to show pyruvate reducing activity”.
For NC(=O)c1ccc[n+]([C@@H]2O[C@H](COP(=O)(O)OP(=O)(O)OC[C@H]3O[C@@H](n4cnc5c(N)ncnc54)[C@H](O)[C@@H]3O)[C@@H](O)[C@H]2O)c1 [NAD^+], the “% decrease in activity at 1 mM” value [4] was 95%.
